Columns and labels:
[1] = tested on: human subject 1-derived induced fibroblasts; format: cell-based
[2] = tested on: human subject 1-derived induced fibroblasts; test: collagen production by induced fibroblasts after adding substance (subject 1); format: cell-based; settings: FIG. 14A; for amount of the collagen produced: human subject 1-derived induced fibroblasts, compared with the control in which the addition was not carried out
Description: (§1) Skin cells were collected from a human subject 1 and a human subject 2, and iPS cells were induced from the skin cells from the respective subjects. Further, in the same manner as in Example 2, fibroblasts were induced from the human subject 1-derived iPS cells, and fibroblasts were induced from the human subject 2-derived iPS cells.

[3] = tested on: human subject 2-derived induced fibroblasts; test: collagen production by induced fibroblasts after adding substance (subject 2); format: cell-based; settings: compared with the control in which the addition was not carried out, FIG. 14B
Description: as §1

[4] = tested on: human subject 2-derived induced fibroblasts; settings: among phenoxyethanol, paraben, benzalkonium chloride, sodium salicylate, FIG. 15B
Procedure: In addition, phenoxyethanol, paraben, benzalkonium chloride, and sodium salicylate, which are respectively antiseptic agents, were prepared.

In the case of OCCOc1ccccc1 [phenoxyethanol], the “survival rate of cells” value [1] is reported as “highest”.
With CC1=C(/C=C/C(C)=C/C=C/C(C)=C/CO)C(C)(C)CCC1 [retinol] the “amount of the collagen produced” value [2] was “increased” and the “amount of the collagen produced” value [3] was “increased”.
For O=C([O-])c1ccccc1O.[Na+] [sodium salicylate], the “survival rate of cells” value [4] was “highest”.
In the case of O=C1O[C@H]([C@@H](O)CO)C(O)=C1O [vitamin C], the “amount of the collagen produced” value [2] is reported as “increased”, the “effectiveness in increasing the production amount of collagen, compared among added substances” value ([2]; induced fibroblasts derived from human subject 1, among vitamin C, retinol, iPS cell culture medium supernatant) is reported as “most effective” and the “amount of the collagen produced” value [3] is reported as “increased”.

— patent US20240319171A1, “METHOD FOR SCREENING SUBSTANCE, SYSTEM FOR SCREENING SUBSTANCE, METHOD FOR PRODUCING A CLUMP FROM STEM CELLS, AND METHOD FOR PRODUCING DIFFERENTIATED CELLS” (priority 2023, published 2024)
